From US20020137929A1, “1 - (3-heterocyclylphenyl) isothiourea, -isourea, -guanidine and -amidine herbicidal agents” (Intellectual Property Department, BASF Aktiengesellschaft, priority 1998, published 2002)

Experiments:
[1] = tested on: MOOVA (Monochoria); test: Postemergence weed control under flooded paddy conditions; format: in vivo, Monochoria vaginalis; conditions: postemergence weeds, 3-4 weeks after treatment
In short: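 Containers holding 3–5 cm weeds and rice at 1.5–2.5 leaves are flooded to 1.5–3 cm above soil. Compound in 50/50 v/v aqueous/acetone is then added directly to the water, about 0.0313–0.500 kg/ha. Plants are kept in the greenhouse and rated 0–9 visually at 3–4 weeks.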

[2] = tested on: CYPIR (Rice Flatsedge); test: Preemergence weed control under flooded paddy conditions; format: in vivo, Cyperus iria; conditions: rated 3-4 weeks after treatment
In short: (§1)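 Flooded-pot preemergence screen with silt loam and seeds in the upper 0.5 cm. Dose about 0.0313 to 0.500 kg/ha, delivered into flood water; visual 0-9 score after 3 to 4 weeks.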

[3] = tested on: SAGPY (Arrowhead (Pygmaea)); test: as above; format: in vivo, Sagittaria pygmaea; conditions: rated 3-4 weeks after treatment
In short: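 Using flooded silt loam (water 1.5 to 3 cm deep), seeds sown in the top 0.5 cm were exposed preemergence to compound pipetted into the flood at about 0.0313 to 0.500 kg/ha. Effects were scored 0-9 by eye three to four weeks later.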

[4] = tested on: ECHORC (Watergrass (Calif.)); test: as above; format: in vivo, Echinochloa oryzoides; conditions: rated 3-4 weeks after treatment
In short: as §1

[5] = tested on: TRZAWR (Wheat, Winter, cv Riband); test: Preemergence herbicidal evaluation; format: in vivo, Triticum aestivum; conditions: rated 4-5 weeks after treatment
In short: (§2)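 Rating at 4–5 wk post-spray on a 0–9 visual scale vs control. Application: aqueous acetone, ~0.0156–0.500 kg/ha, to soil surface after seeding, preemergence.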

[6] = tested on: ABUTH (Velvetleaf); test: Preemergence herbicidal evaluation; format: in vivo, Abutilon theophrasti; conditions: rated 4-5 weeks after treatment
In short: as §2

Structure (SMILES) | Herbicidal rating MOOVA ([1]; rate 0.0313 kg/ha) | Herbicidal rating MOOVA ([1]; rate 0.0625 kg/ha) | Herbicidal rating MOOVA ([1]; rate 0.1250 kg/ha) | Herbicidal rating MOOVA ([1]; rate 0.2500 kg/ha) | Herbicidal rating CYPIR ([2]; 0.0313 kg/ha) | Herbicidal rating CYPIR ([2]; 0.0625 kg/ha) | Herbicidal rating CYPIR ([2]; 0.1250 kg/ha) | Herbicidal rating CYPIR ([2]; 0.2500 kg/ha) | Herbicidal rating SAGPY ([3]; 0.0313 kg/ha) | Herbicidal rating SAGPY ([3]; 0.0625 kg/ha) | Herbicidal rating SAGPY ([3]; 0.1250 kg/ha) | Herbicidal rating SAGPY ([3]; 0.2500 kg/ha) | Herbicidal rating ECHORC ([4]; 0.0313 kg/ha) | Herbicidal rating ECHORC ([4]; 0.0625 kg/ha) | Herbicidal rating ECHORC ([4]; 0.1250 kg/ha) | Herbicidal rating ECHORC ([4]; 0.2500 kg/ha) | Preemergence herbicidal rating TRZAWR ([5]; rate 0.0625 kg/ha) | Preemergence herbicidal rating TRZAWR ([5]; rate 0.2500 kg/ha) | Preemergence herbicidal rating ABUTH ([6]; rate 0.1250 kg/ha) | Preemergence herbicidal rating ABUTH ([6]; rate 0.2500 kg/ha) | also measured
CCOC(=O)CN1C(=O)C(CC)SC1=Nc1cc(-n2c(=O)cc(C(F)(F)F)n(C)c2=O)c(F)cc1Cl (centres unmarked) [Compound 13, Ethyl 2-{{2-chloro-5-[3,6-dihydro-3-methyl-2,6-dioxo-4-(trifluoromethyl)-1(2H)-pyrimidinyl]-4-fluorophenyl}imino}-5-ethyl-4-oxo-3-thiazolidineacetate] | 9.0 | 9.0 | 9.0 | 9.0 | 0.0 | 0.0 | 0.5 | 1.0 | 0.0 | 0.0 | 0.0 | 0.0 | 5.5 | 7.0 | 8.0 | 9.0 |  |  |  |  | Herbicidal rating CYPIR ([2]; 0.0156 kg/ha): 0.0; Herbicidal rating SAGPY ([3]; 0.0156 kg/ha): 0.0; Herbicidal rating ECHORC ([4]; 0.0156 kg/ha): 3.5; TRZAWR preemergence herbicidal rating ([5]; rate 0.0313 kg/ha): 1.0; TRZAWR preemergence herbicidal rating ([5]; rate 0.0625 kg/ha): 1.0; TRZAWR preemergence herbicidal rating ([5]; rate 0.1250 kg/ha): 4.0; TRZAWR preemergence herbicidal rating ([5]; rate 0.2500 kg/ha): 6.0; ABUTH preemergence herbicidal rating ([6]; rate 0.0156 kg/ha): 6.0; ABUTH preemergence herbicidal rating ([6]; rate 0.0313 kg/ha): 9.0; ABUTH preemergence herbicidal rating ([6]; rate 0.0625 kg/ha): 9.0; ABUTH preemergence herbicidal rating ([6]; rate 0.1250 kg/ha): 9.0; ABUTH preemergence herbicidal rating ([6]; rate 0.2500 kg/ha): 9.0
COC(=O)CN1C(=O)CSC1=Nc1cc(-n2c(=O)cc(C(F)(F)F)n(C)c2=O)c(F)cc1Cl [Compound 17, Methyl 2-{{2-chloro-5-[3,6-dihydro-3-methyl-2,6-dioxo-4-(trifluoromethyl)-1(2H)-pyrimidinyl]-4-fluorophenyl}imino}-4-oxo-3-thiazolidineacetate] | 9.0 | 9.0 | 9.0 | 9.0 | 0.0 | 0.0 | 6.0 | 9.0 | 0.0 | 0.0 | 4.0 | 4.0 | 4.0 | 9.0 | 9.0 | 9.0 |  |  |  |  | TRZAWR preemergence herbicidal rating ([5]; rate 0.0156 kg/ha): 0.0; TRZAWR preemergence herbicidal rating ([5]; rate 0.0313 kg/ha): 0.0; TRZAWR preemergence herbicidal rating ([5]; rate 0.0625 kg/ha): 0.0; TRZAWR preemergence herbicidal rating ([5]; rate 0.1250 kg/ha): 2.0; TRZAWR preemergence herbicidal rating ([5]; rate 0.2500 kg/ha): 7.0; TRZAWR preemergence herbicidal rating ([5]; rate 0.5000 kg/ha): 7.0; ABUTH preemergence herbicidal rating ([6]; rate 0.0156 kg/ha): 0.0; ABUTH preemergence herbicidal rating ([6]; rate 0.0313 kg/ha): 4.0; ABUTH preemergence herbicidal rating ([6]; rate 0.0625 kg/ha): 9.0; ABUTH preemergence herbicidal rating ([6]; rate 0.1250 kg/ha): 9.0; ABUTH preemergence herbicidal rating ([6]; rate 0.2500 kg/ha): 9.0; ABUTH preemergence herbicidal rating ([6]; rate 0.5000 kg/ha): 9.0
C=CCN1C(=O)CSC1=Nc1cc(-n2c(=O)cc(C(F)(F)F)n(C)c2=O)c(F)cc1Cl [Compound 27] | 9.0 | 9.0 | 9.0 | 9.0 | 3.0 | 4.0 | 6.0 | 9.0 | 0.0 | 0.0 | 4.0 | 4.0 | 6.0 | 7.0 | 9.0 | 9.0 | 3.0 | 9.0 | 9.0 | 9.0 | Preemergence herbicidal rating TRZAWR ([5]; rate 0.0156 kg/ha): 0.0; Preemergence herbicidal rating TRZAWR ([5]; rate 0.1250 kg/ha): 7.0; Preemergence herbicidal rating ABUTH ([6]; rate 0.0156 kg/ha): 7.0; Preemergence herbicidal rating ABUTH ([6]; rate 0.0313 kg/ha): 9.0; Preemergence herbicidal rating ABUTH ([6]; rate 0.0625 kg/ha): 9.0
COC(=O)CCN1C(=O)CSC1=Nc1cc(-n2c(=O)cc(C(F)(F)F)n(C)c2=O)c(F)cc1Cl [Compound 28, Methyl 2-{{2-chloro-5-[3,6-dihydro-3-methyl-2,6-dioxo-4-(trifluoromethyl)-1(2H)-pyrimidinyl]-4-fluorophenyl}imino}-4-oxo-3-thiazolidinepropionate] | 9.0 | 9.0 | 9.0 | 9.0 | 9.0 | 9.0 | 9.0 | 9.0 | 0.0 | 0.0 | 0.0 | 0.0 | 0.0 | 4.0 | 7.0 | 9.0 | 0.0 | 8.0 | 3.0 | 9.0 | 
Cn1c(C(F)(F)F)cc(=O)n(-c2cc(N=C3SCC(=O)N3CC(=O)NS(C)(=O)=O)c(Cl)cc2F)c1=O [Compound 38, 2-{{2-Chloro-5-[3,6-dihydro-3-methyl-2,6-dioxo-4-(trifluoromethyl)-1(2H)-pyrimidinyl]-4-fluoro-phenyl}imino}-N-(methylsulfonyl)-4-oxo-3-thiazolidineacetamide] | 9.0 | 9.0 | 9.0 | 9.0 | 3.0 | 3.0 | 5.0 | 5.0 | 0.0 | 3.0 | 4.0 | 9.0 | 0.0 | 2.0 | 4.0 | 7.0 | 0.0 | 7.0 | 9.0 | 9.0 | Preemergence herbicidal rating TRZAWR ([5]; rate 0.0313 kg/ha): 0.0; Preemergence herbicidal rating TRZAWR ([5]; rate 0.1250 kg/ha): 2.0; Preemergence herbicidal rating ABUTH ([6]; rate 0.0313 kg/ha): 9.0; Preemergence herbicidal rating ABUTH ([6]; rate 0.0625 kg/ha): 9.0
CCOC(=O)CN1C(=O)C(CC(=O)OCc2ccccc2)OC1=Nc1cc(-n2c(=O)cc(C(F)(F)F)n(C)c2=O)c(F)cc1Cl (centres unmarked) [Compound 40, 2-{{2-Chloro-5-[3,6-dihydro-3-methyl-2,6-dioxo-4-(trifluoromethyl)-1(2H)-pyrimidinyl]-4-fluorophenyl}imino}-4-oxo-3,5-oxazolidinediacetic acid, 5-benzyl ethyl ester] | 9.0 | 9.0 | 9.0 | 9.0 | 0.0 | 0.0 | 0.0 | 0.0 | 0.0 | 0.0 | 0.0 | 0.0 | 5.0 | 5.0 | 5.0 | 9.0 | 0.0 | 1.0 | 9.0 | 9.0 | Preemergence herbicidal rating TRZAWR ([5]; rate 0.0313 kg/ha): 0.0; Preemergence herbicidal rating TRZAWR ([5]; rate 0.1250 kg/ha): 0.0; Preemergence herbicidal rating ABUTH ([6]; rate 0.0313 kg/ha): 0.0; Preemergence herbicidal rating ABUTH ([6]; rate 0.0625 kg/ha): 6.0
